Experimental findings from ChEMBL document CHEMBL1765088, “5-Benzamidoisoquinolin-1-ones and 5-(ω-carboxyalkyl)isoquinolin-1-ones as isoform-selective inhibitors of poly(ADP-ribose) polymerase 2 (PARP-2)” (J Med Chem, 2011) are described below.

Values joined by “and” are separate entries in the source; they are usually repeats but may differ in a detail not shown here. Identical values can stand only once.

In assay [1] the target is Poly [ADP-ribose] polymerase 2 (Mus musculus, UniProt O88554). In words: Inhibition of recombinant full length mouse PARP-2 after 10 mins using [3H]NAD+ by solution-phase assay.
Assay [2] addresses Poly [ADP-ribose] polymerase 1 (Homo sapiens, UniProt P09874). In words: Inhibition of full length human PARP-1 after 10 mins by FlashPlate scintillation proximity assay. For orientation: Scintillation proximity formats need no separation of bound from free tracer.
In the next assay the test system is MDA-MB-231. In words: Growth inhibition of human MDA-MB-231 cells after 7 days by MTS assay. Conditions: MDA-MB-231, 168 h. In general terms: Tetrazolium assays rely on reduction of a dye to a coloured formazan, in cell work by metabolically active cells.
The next assay has as its system LNCaP. The experiment in a line: Growth inhibition of human LNCAP cells after 7 days by MTS assay. The note with it: 168 h.
The subject of a further assay is HT-29. In words: Growth inhibition of human HT-29 cells after 7 days by MTS assay. Conditions: HT-29, 168 h.
Assay [3] is described as follows: Growth inhibition of human FEK4 cells after 7 days by MTS assay. The note with it: FEK4, 168 h.
A short description of assay [4]: Selectivity ratio, ratio of IC50 for full length human PARP-1 to IC50 for recombinant full length mouse PARP-2.
In another assay the test system is CT26. The experiment in a line: Inhibition of mouse CT26 cell proliferation at 1 mM. It is filed as functional.
Assay [5] addresses PARP (mixed cellular PARPs). In words: Inhibition of mixed PARPs from broken cell nuclei by broken nuclei assay.
Assay [6] addresses PARP (mixed cellular PARPs). The assay is described as above. The source holds these as a separate data set.
A short description of assay [7]: Selectivity for recombinant full length mouse PARP-2 over full length human PARP-1.

Sequence of Poly [ADP-ribose] polymerase 1 (P09874 whole entry): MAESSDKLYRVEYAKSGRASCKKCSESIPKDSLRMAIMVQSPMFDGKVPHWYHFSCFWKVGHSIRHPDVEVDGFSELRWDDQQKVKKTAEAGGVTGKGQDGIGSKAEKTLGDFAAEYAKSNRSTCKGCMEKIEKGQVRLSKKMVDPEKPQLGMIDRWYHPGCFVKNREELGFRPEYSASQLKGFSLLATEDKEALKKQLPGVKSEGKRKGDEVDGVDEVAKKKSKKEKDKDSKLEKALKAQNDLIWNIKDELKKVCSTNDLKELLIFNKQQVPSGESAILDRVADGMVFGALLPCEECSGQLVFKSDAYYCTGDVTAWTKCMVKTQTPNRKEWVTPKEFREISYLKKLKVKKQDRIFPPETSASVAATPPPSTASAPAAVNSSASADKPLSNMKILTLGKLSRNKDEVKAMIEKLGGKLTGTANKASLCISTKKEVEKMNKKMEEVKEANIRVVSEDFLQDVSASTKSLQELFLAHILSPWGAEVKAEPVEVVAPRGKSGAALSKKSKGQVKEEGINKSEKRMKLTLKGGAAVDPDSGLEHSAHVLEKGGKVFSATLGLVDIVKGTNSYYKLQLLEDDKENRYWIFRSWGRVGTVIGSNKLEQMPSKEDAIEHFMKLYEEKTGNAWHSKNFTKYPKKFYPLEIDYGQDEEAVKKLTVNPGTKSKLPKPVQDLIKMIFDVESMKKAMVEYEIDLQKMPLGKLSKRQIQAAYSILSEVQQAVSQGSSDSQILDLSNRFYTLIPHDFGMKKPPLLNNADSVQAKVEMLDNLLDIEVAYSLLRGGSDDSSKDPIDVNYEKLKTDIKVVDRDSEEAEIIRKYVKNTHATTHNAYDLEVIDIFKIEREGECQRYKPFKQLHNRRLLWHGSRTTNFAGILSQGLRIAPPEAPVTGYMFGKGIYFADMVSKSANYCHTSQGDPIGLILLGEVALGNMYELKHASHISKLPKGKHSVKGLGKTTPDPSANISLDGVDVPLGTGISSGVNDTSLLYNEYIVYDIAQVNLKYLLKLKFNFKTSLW
Sequence of Poly [ADP-ribose] polymerase 2 (O88554 whole entry): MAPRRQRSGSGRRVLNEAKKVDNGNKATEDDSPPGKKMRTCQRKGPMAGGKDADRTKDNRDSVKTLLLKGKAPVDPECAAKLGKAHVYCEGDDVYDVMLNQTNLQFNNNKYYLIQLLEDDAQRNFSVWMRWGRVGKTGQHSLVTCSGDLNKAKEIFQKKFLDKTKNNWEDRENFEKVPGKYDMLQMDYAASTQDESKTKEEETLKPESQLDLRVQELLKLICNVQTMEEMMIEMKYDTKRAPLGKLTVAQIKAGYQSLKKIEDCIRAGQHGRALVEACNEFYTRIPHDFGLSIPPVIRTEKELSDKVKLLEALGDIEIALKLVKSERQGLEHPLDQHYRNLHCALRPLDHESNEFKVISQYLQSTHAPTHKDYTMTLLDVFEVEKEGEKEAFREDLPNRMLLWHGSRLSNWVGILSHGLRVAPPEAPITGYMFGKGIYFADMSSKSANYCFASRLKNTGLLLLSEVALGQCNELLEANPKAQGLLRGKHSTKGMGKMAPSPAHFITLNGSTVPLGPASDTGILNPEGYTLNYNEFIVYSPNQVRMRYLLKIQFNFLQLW

In general, IC50 refers to the concentration needed to halve the response being measured. Take `O=C(Nc1cccc2c(=O)[nH]ccc12)c1ccc(I)cc1`: in assay [1], the IC50 was 1.3 µM.

On to `Cc1ccccc1C(=O)Nc1cccc2c(=O)[nH]ccc12`, for which the IC50 in assay [1] was 5.6 µM.

For the molecule `O=C(Nc1cccc2c(=O)[nH]ccc12)c1ccc(F)cc1`, in assay [1], the IC50 stood at 3.6 µM.

Turning to `O=C(Oc1cccc2c(=O)[nH]ccc12)c1ccccc1`, the IC50 in [1] was 1.5 µM; in assay [2], 4.1 µM.

In the case of `NC(=O)c1cccc2nc(-c3ccc(Cl)cc3)cnc12`, the IC50 in assay [1] was 0.09 µM.

Consider `O=C(Nc1cccc2c(=O)[nH]ccc12)c1ccccc1I`, for which, in assay [1], the IC50 came to 3.2 µM.

Take `O=C(Nc1cccc2c(=O)[nH]ccc12)C12CC3CC(CC(C3)C1)C2`: the IC50 in assay [1] is 19.9 µM; with MDA-MB-231, more than 200 µM; in assay [2], more than 50 µM; with LNCaP it was 42 µM; in the assay with HT-29, more than 200 µM; in assay [3], more than 200 µM.

For `O=C(Nc1cccc2c(=O)[nH]ccc12)C1CCCCC1`, the IC50 in [1] is 27.9 µM; in the assay on MDA-MB-231, more than 200 µM; in [2] it was more than 80 µM; with LNCaP, more than 200 µM; in the assay with HT-29, more than 200 µM; in [3], more than 200 µM.

As a reminder, the inhibition is the percentage by which the read-out fell short of the control. A high value points to a strong effect. On to `Nc1cccc2c(=O)[nH]ccc12`, for which the IC50 in [1] is 1.05 µM and 1 µM; in the assay on MDA-MB-231, 170 µM; in assay [2], 0.94 µM and 1 µM; in the assay with LNCaP, more than 200 µM; with HT-29 it was more than 200 µM; in assay [3] it was more than 200 µM. The Ratio IC50 in [4] turned out to be 0.9. 1000 µM produced 40% inhibition with CT26.

`O=C(Nc1cccc2c(=O)[nH]ccc12)c1ccc([N+](=O)[O-])cc1`: the IC50 in [1] amounted to 1.6 µM.

For the molecule `O=C(O)c1cccc2c(=O)[nH]ccc12`, the IC50 is more than 25 µM in assay [1], more than 25 µM in assay [2], less than 13 µM in assay [5] and less than 13 µM in [6].

Regarding `O=C(Oc1cccc2c1CCNC2=O)c1ccccc1`, the Ratio in assay [7] came out at 16.

For `Cc1ccc(C(=O)Nc2cccc3c(=O)[nH]ccc23)cc1`, the IC50 in assay [1] was 6.5 µM.

Take `O=C(O)CCc1cccc2c(=O)[nH]ccc12`: in assay [1], the IC50 was 3 µM.

On to `O=c1[nH]c(CCCCN2CC=C(c3ccc(F)cc3)CC2)nc2c(Cl)cccc12`, for which the IC50 in assay [1] turned out to be 0.5 µM.

On to `O=C(O)CNc1cccc2c(=O)[nH]ccc12`, for which the IC50 in assay [1] stood at 0.55 µM.

Regarding `O=C(O)/C=C/c1cccc2c(=O)[nH]ccc12`, the IC50 in assay [1] was 4.7 µM; in assay [5] it was less than 11 µM.

Regarding `Cc1cc2c(NC(=O)c3ccccc3)cccc2c(=O)[nH]1`, in [1], the IC50 worked out at 6.3 µM.

In the case of `O=C(Nc1cccc2c(=O)[nH]ccc12)c1ccccc1`, the IC50 in [1] is 1.5 µM; in the assay with MDA-MB-231, 139 µM; in the assay with LNCaP it was 98 µM; in the assay on HT-29 it was more than 200 µM; in [3] it was more than 200 µM.

With `O=C(Nc1cccc2c(=O)[nH]ccc12)c1ccc(Cl)cc1`, the IC50 in [1] worked out at 3.9 µM.

For `CC(C)(C)C(=O)Nc1cccc2c(=O)[nH]ccc12`, the IC50 in [1] was 29 µM; in the assay on MDA-MB-231, more than 200 µM; in assay [2], more than 100 µM; with LNCaP it was more than 200 µM; with HT-29 it was more than 200 µM; in assay [3] it was more than 200 µM. In assay [4], the Ratio IC50 was more than 3.4.

For `O=C(Nc1cccc2c(=O)[nH]ccc12)c1ccc(C(F)(F)F)cc1`, the IC50 in assay [1] came out at 3.3 µM.

Regarding `O=C(Oc1cccc2c(O)nccc12)c1ccccc1`, the Ratio in assay [7] came to 60. Besides, the Ratio IC50 in [4] turned out to be 2.75.

On to `N#Cc1ccc(-c2cnc3cccc(C(N)=O)c3n2)cc1`, for which, in assay [7], the Ratio was found to be 12.

Turning to `O=C(Nc1cccc2c(=O)[nH]ccc12)c1cccs1`, the concentration for half-maximal inhibition (IC50) in assay [1] was found to be 7 µM.

With `Nc1cccc2c(=O)n(CCC(=O)O)ccc12`, the IC50 in assay [1] was 1.6 µM.
